Source: publication PMC7077018, “Gas chromatography-mass spectrometry analysis, phytochemical screening and antiprotozoal effects of the methanolic Viola tricolor and acetonic Laurus nobilis extracts” (BMC Complementary Medicine and Therapies, 2020)
Values after ≈ are worked out from the molar mass of the structure shown. Read-outs that look alike come from different tables or passages of the source.

Columns and labels:
[1] = tested on: B. bigemina; assay: Babesia fluorescent (SYBR Green I) in vitro growth inhibition assay; format: cell-based; details: for IC50: B. bigemina, in vitro, 4 days
Description: (§1) For the in vitro experiments, a German strain B. divergens, Argentine strain B. bigemina, Texas strain B. bovis, were cultivated in cattle RBCs, while USDA strains of equine piroplasm parasites (T. equi and B. caballi) were maintained in horse RBCs. […] For conducting the in vivo study, female BALB/c mice, aged six-week, obtained from CLEA Japan were infected with B. microti Munich strain [1]. […] GIT medium replenished with 40% horse serum was used as a growth medium for B. caballi parasite culture. To ensure free-bacterial contamination, all medium was supplemented with amphotericin B (0.15 μg/mL) (Sigma-Aldrich, USA), streptomycin (60 U/mL) and penicillin G (60 U/mL). The Babesia fluorescent assay was carried out on the in vitro culture as previously reported elsewhere. […] On day four of culture, an aliquot (100 μL) of lysis buffer was added to 0.2 μL/mL SG1 per well; subsequently, it was covered with aluminum foil to prevent exposure to light. After a 6-h incubation at 37 °C, fluorescence readings were acquired on a spectrofluorimeter (Fluoroskan Ascent, Thermo Fisher Scientific, USA) with a 485 nm excitation wavelength and a 518 nm emission wavelength. The IC50 values of the two extracts, DMA and ATV were established from the in vitro growth inhibition by nonlinear regression curve fit on a GraphPad Prism (GraphPad Software Inc., USA). While for in vivo, the significant variations (p < 0.05) among group mean values on parasitemia and one-way ANOVA Tukey's test in GraphPad Prism version 5.0 was used to analyze hematology profiles in mice infected with B. microti.

[2] = tested on: B. bovis; assay: as above; format: cell-based; details: for IC50: B. bovis, in vitro, 4 days
Description: as §1

[3] = tested on: B. caballi; assay: as above; format: cell-based; details: for IC50: B. caballi, in vitro, 4 days
Description: as §1

[4] = tested on: B. divergens; assay: as above; format: cell-based; details: for IC50: B. divergens, in vitro, 4 days
Description: as §1

[5] = tested on: T. equi; assay: as above; format: cell-based; details: for IC50: T. equi, in vitro, 4 days
Description: as §1

[6] = tested on: Madin–Darby bovine kidney (MDBK) cells; assay: Cytotoxicity assay on normal cells (CCK-8); format: cell-based; details: MDBK cell viability, 24 h
Method: (§2) Cultures of Human foreskin fibroblast (HFF; HFF-1 ATCC® SCRC-1041™), Madin–Darby bovine kidney (MDBK; ECACC) and mouse embryonic fibroblast (NIH/3 T3; ATCC® CRL-1658™) cells were retrieved from − 80 °C stock and cultured continuously at 37 °C under atmosphere 5% CO2 in our laboratory. The NIH/3 T3 and HFFs cells were preserved in Dulbecco Modified Eagle’s Medium (DMEM; Gibco, Grand Island, NY, USA), while MDBK cell line grown in Minimum Essential Medium Eagle (MEM; Gibco). All mediums were treated with 2 mM glutamine, 0.5% penicillin/streptomycin (Gibco) and 10% inactivated fetal bovine serum. Every 72 to 96 h, the medium was replaced, and once 80% confluence was reached, the cell collection was performed by sub-culture protocol. To confirm the absence of mycoplasma contamination, 4, 6-diamidino-2-phenylindole dihydrochloride (Sigma-Aldrich, USA) stain was used.
(§3) The cell viability test was conducted in a 96-well plate as described elsewhere. Briefly, an aliquot of (100 μL) cells was implanted at 5 × 10^4 cells/mL in DMEM or MEM with fetal bovine serum and incubated overnight under atmosphere 5% CO2 at 37 °C for attachment. Using two-fold dilutions, aliquots (10 μL) of herbal extracts and reference drugs were added in triplicate per well and further incubated for 24 h. The positive control wells containing cells mixed with the medium in 0.4% DMSO, whereas the negative control wells containing culture medium only. After a 24-h incubation, Cell Counting Kits-8 (CCK-8) (10 μL) was added per well and then plate incubation was conducted for an additional 3 h and a microplate reader was used to assess the absorbance at 450 nm.

[7] = tested on: human foreskin fibroblast (HFF) cells; assay: Cytotoxicity assay on normal cells (CCK-8); format: cell-based; details: HFF cell viability, 24 h
Method: as §2, §3

[8] = tested on: mouse embryonic fibroblast (NIH/3 T3) cells; assay: Cytotoxicity assay on normal cells (CCK-8); format: cell-based; details: 24 h
Method: as §2, §3

[9] = tested on: Leishmania; design: method as in PMID 28968213; details: cited from earlier work
[10] = tested on: B. microti; assay: Chemotherapeutic effects against B. microti in infected BALB/c mice; format: in vivo
Method: For the in vitro experiments, a German strain B. divergens, Argentine strain B. bigemina, Texas strain B. bovis, were cultivated in cattle RBCs, while USDA strains of equine piroplasm parasites (T. equi and B. caballi) were maintained in horse RBCs. The parasite incubation occurred at 37 °C in a humidifying chamber under 90% N2, 5% O2, and 5% CO2 atmosphere using a microaerophilic stationary-phase culture. For conducting the in vivo study, female BALB/c mice, aged six-week, obtained from CLEA Japan were infected with B. microti Munich strain [1].
Twenty-five mice were placed in an environment free from pathogens with 22 °C temperature and adjusted humidity and under 12 h light and 12 h darkness and randomly distributed into five groups. The mice in groups 2 through 5 were obtained 500 μL of 1 × 10^7B. microti iRBC by intraperitoneal (i.p.) injection. Group 1 served as a negative control and was neither infected nor treated. At 1% parasitemia, drug treatment of the mice by i.p. started, continuing for 5 days. Group 2 act as a positive control group and received 95% DDW and 5% DMSO. […] The drug administration lasted for 5 days starting from the fourth day to the eighth day post-infection (p.i.), and parasitemia was checked by preparing Giemsa-stained smears every 2 days in about 2000 RBCs by microscopy until day 32 post-infection (p.i.). Furthermore, the hematological parameters, including hemoglobin (HGB), RBCs, and HCT, were determined by an automatic hematology analyzer (Celltac α MEK-6450, Nihon Kohden, Japan) every 4 days. After finishing the in vivo experiment, an anesthetic system using an inhaler containing isoflurane was used to euthanize all mice by placing them in the induction chamber, adjusting the oxygen flowmeter to 0.8 to 1.5 L/min and vaporizer to 3 to 5%. […]

O=C1C(O)=C([C@H]2CC[C@H](c3ccc(Cl)cc3)CC2)C(=O)c2ccccc21 [ATV, atovaquone]
IC50 ([1]; 96 h, read-out: IC50): 0.26 ± 0.03 µg/mL (≈ 0.709 µM)
Selective indices HFF ([1]; EC50 HFF / IC50 B. bigemina): ˃ 384.6
Selective indices MDBK ([1]; EC50 MDBK / IC50 B. bigemina): ˃ 384.6
Selective indices NIH/3 T3 ([1]; EC50 NIH/3 T3 / IC50 B. bigemina): ˃ 384.6
IC50 ([2]; Bos taurus, 96 h, read-out: IC50): 0.015 ± 0.001 µg/mL (≈ 0.0409 µM)
Selective indices HFF ([2]; EC50 HFF / IC50 B. bovis): ˃ 6666.7
Selective indices MDBK ([2]; EC50 MDBK / IC50 B. bovis): ˃ 6666.7
Selective indices NIH/3 T3 ([2]; EC50 NIH/3 T3 / IC50 B. bovis): ˃ 6666.7
IC50 ([3]; Babesia caballi, 96 h, read-out: IC50): 0.038 ± 0.01 µg/mL (≈ 0.104 µM)
Selective indices HFF ([3]; EC50 HFF / IC50 B. caballi): ˃ 2631.6
Selective indices MDBK ([3]; EC50 MDBK / IC50 B. caballi): ˃ 2631.6
Selective indices NIH/3 T3 ([3]; EC50 NIH/3 T3 / IC50 B. caballi): ˃ 2631.6
IC50 ([4]; 96 h, read-out: IC50): 0.014 ± 0.002 µg/mL (≈ 0.0382 µM)
Selective indices HFF ([4]; EC50 HFF / IC50 B. divergens): ˃ 7142.9
Selective indices MDBK ([4]; EC50 MDBK / IC50 B. divergens): ˃ 7142.9
Selective indices NIH/3 T3 ([4]; EC50 NIH/3 T3 / IC50 B. divergens): ˃ 7142.9
IC50 ([5]; 96 h, read-out: IC50): 0.035 ± 0.01 µg/mL (≈ 0.0954 µM)
Selective indices HFF ([5]; EC50 HFF / IC50 T. equi): ˃ 2857.1
Selective indices MDBK ([5]; EC50 MDBK / IC50 T. equi): ˃ 2857.1
Selective indices NIH/3 T3 ([5]; EC50 NIH/3 T3 / IC50 T. equi): ˃ 2857.1
EC50 ([6]; Bos taurus): > 100 µg/mL
EC50 ([7]; Homo sapiens): > 100 µg/mL
EC50 ([8]; Mus musculus, NIH3T3, NIH/3 T3 cell viability): > 100 µg/mL

C=CCc1ccc(O)c(OC)c1 [eugenol]
IC50 antileishmanial effect [9]: 1.43 µg/mL (≈ 8.68 µM)

CC(=O)NCC(=O)O.CC(=O)NCC(=O)O.N=C(N)c1ccc(N=NNc2ccc(C(=N)N)cc2)cc1 [DMA, diminazene aceturate]
IC50 [1]: 0.11 ± 0.01 µg/mL
IC50 [2]: 0.25 ± 0.02 µg/mL
IC50 [3]: 0.003 ± 0.001 µg/mL
IC50 [4]: 0.35 ± 0.03 µg/mL
IC50 [5]: 0.37 ± 0.01 µg/mL
EC50 MDBK [6]: ˃ 100 μg/mL
EC50 HFF [7]: ˃ 100 μg/mL
EC50 NIH/3 T3 ([8]; NIH/3 T3 cell viability): ˃ 100 μg/mL
Restriction of the parasitemia level ([10]; 25 mg kg−1, eighth day p.i., mice): 93.2%
Level of parasitemia ([10]; 25 mg kg−1 intraperitoneally for 5 days, 8 days p.i., BALB/c mice): 3.9%
Anemia development in mice ([10]; B. microti-infected mice): prohibited anemia development

O=C/C=C/c1ccccc1 [cinnamaldehyde]
IC50 antileishmanial effect [9]: 0.681 µg/mL (≈ 5.15 µM)
